Source: patent US20260159497A1, “SOLID FORMS OF A COMPLEMENT FACTOR B INHIBITOR” (Novartis Pharma AG, priority 2022, published 2026)
Where two headings read alike, the source gives them in different places.

Experiments:
[1] = Pharmacokinetic study after oral dosing, rat; format: in vivo, SD Rat; conditions: male, SD (Sprague-Dawley), rat, in vivo, po, solution in 20% kleptose in water, SD Rat male, Fed, 10 mL/kg; for AUC(0-t) / concentration at 24 h: oral; for AUC(0-t): read-out: AUC0-24 h; for concentration at 24 h: read-out: C24 h
Protocol: (§1) The pharmacokinetic profile of (S)-4-(2,2-difluoro-7-((5-methoxy-7-methyl-1H-indol-4-yl)methyl)-7-azaspiro[3.5]nonan-6-yl)benzoic acid was assessed in rats, dogs or non-human primates (NHPs) as the amorphous compound as a solution in 20% kleptose in water and as a suspension of Form A in 0.5% methocel+0.1% tween 80 in water.
(§2) Amorphous (S)-4-(2,2-difluoro-7-((5-methoxy-7-methyl-1H-indol-4-yl)methyl)-7-azaspiro[3.5]nonan-6-yl)benzoic acid was weighed into a glass vial with a magnetic stir bar to give formulations at dose concentrations of 0.1-1000 mg/kg. Approx. ⅓ the final volume of 20% kleptose (hydroxypropyl β-cyclodextrin, Aldrich, CAS #128446-35-5) in water was added to the vial (to afford either a 5 mL/kg or 10 mL/kg dose volume, depending on the species). The mixture was basified to a pH of 8.5 to 10 using dropwise addition of 2-5 M aqueous NaOH solution, with pH monitoring. The suspension was stirred, vortexed, and sonicated for 15-20 minutes to afford a homogenous mixture. The second ⅓ of the final volume of 20% kleptose was added to the vial and further stirred, vortexed, and sonicated for 15-20 minutes to afford a homogenous mixture. The pH was monitored and further pH adjustment to pH 8.5 to 10, if necessary, can be applied. The final ⅓ the final volume of 20% kleptose was added to the vial and further stirred, vortexed, and sonicated for 15-20 minutes to afford a homogenous solution. The pH of the solution was adjusted to a pH of 7.5 to 8.0 with dropwise addition of 1.0 M aqueous HCl solution with gentle stirring. The formulation should remain in solution.
Form A crystalline (S)-4-(2,2-difluoro-7-((5-methoxy-7-methyl-1H-indol-4-yl)methyl)-7-azaspiro[3.5]nonan-6-yl)benzoic acid was weighed into a glass vial with a magnetic stir bar to give formulations at dose concentrations of 0.1-1000 mg/kg. The crystalline material should preferably have a particle size with a D50 below 50 μm, and ideally with a D50 below 5 μm. The desired volume of 0.5% methocel (viscosity 400 cP, Aldrich, CAS #9004-67-5)/0.1% tween-80 (Aldrich, CAS #9005-65-6) was added (to afford a 5 mL/kg dose volume). The contents of the vial were stirred at 400-500 rpm on a stir-plate. Gentle vortex or bath sonication can be applied to break down any large clumps. The vial should be mixed well to ensure homogeneity right before animal dosing.

[2] = Pharmacokinetic study after oral dosing, non-human primate; conditions: cynomolgus monkey, in vivo, solution in 20% kleptose in water, Cyno male, 30 mg/kg, Fed, 5 mL/kg
Protocol: as §1, §2

[3] = Pharmacokinetic study after oral dosing, dog; conditions: in vivo, solution in 20% kleptose in water, Dog beagle male, Fasted, 5 mL/kg; for AUC(0-t): read-out: AUC0-24 h; for concentration at 24 h: read-out: C24 h
Protocol: as §1, §2

[4] = Solubility in Simulated Fluids at 37° C.; format: physicochemical; conditions: for solubility at 24 h / solubility at 30 min: 37 °C, thermodynamic from solid; for solubility at 24 h: read-out: Solubility (mg/mL) 24 h; for solubility at 30 min: read-out: Solubility (mg/mL) 30 min
Description: Solubility data of Form A (S)-4-(2,2-difluoro-7-((5-methoxy-7-methyl-1H-indol-4-yl)methyl)-7-azaspiro[3.5]nonan-6-yl)benzoic acid, Form B (S)-4-(2,2-difluoro-7-((5-methoxy-7-methyl-1H-indol-4-yl)methyl)-7-azaspiro[3.5]nonan-6-yl)benzoic acid p-toluene sulfonic acid salt, Form C (S)-4-(2,2-difluoro-7-((5-methoxy-7-methyl-1H-indol-4-yl)methyl)-7-azaspiro[3.5]nonan-6-yl)benzoic acid p-toluene sulfonic acid salt, and Form D (S)-4-(2,2-difluoro-7-((5-methoxy-7-methyl-1H-indol-4-yl)methyl)-7-azaspiro[3.5]nonan-6-yl)benzoic acid hydrochloride salt in Simulated Fluids at 37° C.

[5] = Dynamic vapor sorption (DVS) mass change; format: physicochemical; conditions: 95% RH at 25° C.
Description: [table] The mass change by DVS isotherm (2 cycles 40-0-95-0-40% RH) are in the tables below. The mass change is based on the dry weight of each.

[6] = after 12 weeks of treatment; cited from earlier work
[7] = fassgf or other biorelevant, FaSSGF, 24 h

Compound: COc1cc(C)c2[nH]ccc2c1CN1CCC2(C[C@H]1c1ccc(C(=O)O)cc1)CC(F)(F)C2 [(S)-4-(2,2-difluoro-7-((5-methoxy-7-methyl-1H-indol-4-yl)methyl)-7-azaspiro[3.5]nonan-6-yl)benzoic acid]
- AUC(0-t) ([1]; 2 mg/kg, 2 mg/kg): 20.5 µM·h
- concentration at 24 h ([1]; 2 mg/kg, 2 mg/kg): 0.21 µM
- Cmax ([1]; 2 mg/kg): 2.42 µM
- AUC(0-t) ([1]; 300 mg/kg, 300 mg/kg): 1110 µM·h
- concentration at 24 h ([1]; 300 mg/kg, 300 mg/kg): 18 µM
- Cmax ([1]; 300 mg/kg): 94 µM
- Cmax [2]: 8.6 µM
- AUC(0-t) ([2]; read-out: AUC0-24 h): 96.1 µM·h
- concentration at 24 h ([2]; read-out: C24 h): 1.75 µM
- Cmax ([3]; 2 mg/kg): 3.64 µM
- AUC(0-t) ([3]; 2 mg/kg): 54.3 µM·h
- concentration at 24 h ([3]; 2 mg/kg): 1.73 µM
- Cmax ([3]; 100 mg/kg): 139 µM
- AUC(0-t) ([3]; 100 mg/kg): 1320 µM·h
- concentration at 24 h ([3]; 100 mg/kg): 18.8 µM

Compound: COc1cc(C)c2[nH]ccc2c1CN1CCC2(C[C@H]1c1ccc(C(=O)O)cc1)CC(F)(F)C2.Cc1ccc(S(=O)(=O)O)cc1 [Form C, (S)-4-(2,2-difluoro-7-((5-methoxy-7-methyl-1H-indol-4-yl)methyl)-7-azaspiro[3.5]nonan-6-yl)benzoic acid p-toluene sulfonic acid salt]
- solubility at 24 h [4, 7]: 0.85 mg/mL
- pH at 24 h ([4]; FaSSGF): 1.56
- Solubility (mg/mL) 30 min ([4]; FaSSGF, 30 min): 0.87 mg/mL
- pH at 24 h ([4]; FaSSIF): 6.25
- Solubility (mg/mL) 30 min ([4]; FaSSIF, 30 min): 1.68 mg/mL
- Solubility (mg/mL) 24 h ([4]; FaSSIF, 24 h): 0.13 mg/mL
- pH at 24 h ([4]; FeSSIF): 4.97
- Solubility (mg/mL) 30 min ([4]; FeSSIF, 30 min): 1.63 mg/mL
- Solubility (mg/mL) 24 h ([4]; FeSSIF, 24 h): 1.69 mg/mL
- pH at 24 h ([4]; Water, initial pH 7.00): 3.37
- Solubility (mg/mL) 30 min ([4]; Water, initial pH 7.00, 30 min): 0.88 mg/mL
- Solubility (mg/mL) 24 h ([4]; Water, initial pH 7.00, 24 h): 1.12 mg/mL
- moisture absorbed by DVS (absorbs up to) [5]: up to 0.4%

Compound: COc1cc(C)c2[nH]ccc2c1CN1CCC2(C[C@H]1c1ccc(C(=O)O)cc1)CC(F)(F)C2.Cl [Form D, (S)-4-(2,2-difluoro-7-((5-methoxy-7-methyl-1H-indol-4-yl)methyl)-7-azaspiro[3.5]nonan-6-yl)benzoic acid hydrochloride salt]
- solubility at 30 min ([4]; fassgf or other biorelevant, FaSSGF, 30 min): 2.25 mg/mL
- solubility at 24 h [4, 7]: > 2 mg/mL
- solubility at 30 min ([4]; fassif, FaSSIF, 30 min): 2.19 mg/mL
- solubility at 24 h ([4]; fassif, FaSSIF, 24 h): > 2 mg/mL
- solubility at 30 min ([4]; fessif, FeSSIF, 30 min): 2.19 mg/mL
- solubility at 24 h ([4]; fessif, FeSSIF, 24 h): 2.33 mg/mL
- solubility at 30 min ([4]; pH 7, water, Water, initial pH 7.00, 30 min): 2.08 mg/mL
- solubility at 24 h ([4]; pH 7, water, Water, initial pH 7.00, 24 h): > 2 mg/mL
- pH at 24 h ([4]; FaSSGF): 1.57
- pH at 24 h ([4]; FaSSIF): 6.17
- pH at 24 h ([4]; FeSSIF): 4.95
- pH at 24 h ([4]; Water, initial pH 7.00): 3.13

Compound: CCO[C@H]1CCN(Cc2c(OC)cc(C)c3[nH]ccc23)[C@H](c2ccc(C(=O)O)cc2)C1 [iptacopan]
- efficacy in Phase II clinical trial in C3G [6]: reduced proteinuria
